{"source": "patent US7485651B2", "about": "“Compounds with activity on muscarinic receptors” (Acadia Pharmaceuticals, Inc., priority 1998, dated 2009)", "biological_target": "T1, m1 receptor (Homo sapiens, UniProt P11229)", "T1 construct": "expressed in transfected cells; host or cells: NIH 3T3 (ATCC CRL 1658)", "T1 sequence (P11229 1-460)": "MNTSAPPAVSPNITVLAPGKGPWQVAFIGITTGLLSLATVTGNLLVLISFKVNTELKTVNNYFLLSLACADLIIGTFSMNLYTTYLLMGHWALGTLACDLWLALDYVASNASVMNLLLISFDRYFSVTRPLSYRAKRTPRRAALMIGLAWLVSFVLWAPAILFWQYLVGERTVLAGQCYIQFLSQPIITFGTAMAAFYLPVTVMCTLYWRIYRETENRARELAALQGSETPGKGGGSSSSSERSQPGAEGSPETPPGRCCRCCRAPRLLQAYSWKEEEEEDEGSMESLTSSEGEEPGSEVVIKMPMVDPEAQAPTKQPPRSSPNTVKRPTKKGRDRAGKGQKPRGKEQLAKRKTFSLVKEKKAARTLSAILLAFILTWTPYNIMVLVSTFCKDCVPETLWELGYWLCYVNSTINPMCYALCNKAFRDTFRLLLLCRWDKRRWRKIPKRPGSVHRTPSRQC", "assay": "R-SAT / NIH 3T3 cells transfected with m1 muscarinic receptor", "type": "cell-based", "procedure": "Cell amplification is detected as increased levels of a marker also expressed by the cells.\nThe cells were treated with trypsin-EDTA, spun down and plated at 2×10^6 per 15 cm dish in 20 m1 of DMEM containing 10% calf serum.\nOn day one, the cells were transfected using the Superfect transfection reagent (available from Qiagen, Valencia, Calif.) in accordance with the manufacturer's instructions. Receptor DNA, β-gal DNA (pSI-β-galactosidase available from Promega, Madison, Wis.), chimeric Gq-i5 DNA for the m2 and m4 receptor subtype assays, and salmon sperm DNA (available from Sigma, St. Louis, […].) as filler to a total of 20 μg DNA was added per plate. Prior to addition to the plates, 60 μl Superfect was added to the DNA and mixed thoroughly by pipetting up and down several times. The mixture was incubated at room temperature for 10-15 minutes. The media were aspirated, and 12 ml fresh DMEM containing 10% calf serum and 50 units/m1 penicillin/streptomycin was added to the plates. The DNA-Superfect solution was mixed once more with a pipette and added to the plate which was swirled to distribute the DNA mixture evenly over the surface. The cells were incubated overnight at 37° C. and 5% CO2. After incubation, the media were aspirated and the plates were rinsed once with a 15 m1 volume of Hank's Buffered Saline. The plates were swirled to ensure thorough rinsing. 20 m1 fresh DMEM supplemented with 10% calf serum and 50 units/m1 penicillin/streptomycin was added to the plates. The cells were incubated for 24-48 hours until the plates were 100% confluent.\nAssay of NIH 3T3 cells transfected with muscarinic receptor subtypes (general procedure) DMEM containing 2% Cyto-SF3 was heated at 37° C. in a water bath under sterile conditions. Sterile working stock solutions of test compounds to be assayed were prepared by diluting the compounds in DMEM to 8× the final concentration for testing. The compound (carbachol) to be included in the assay as a positive control was also diluted in DMEM to 8× the final concentration. 50 μL of the DMEM containing 2% Cyto-SF3 was added to each well of 96-well microtiter plates under sterile conditions. Then, 16 of compound solutions were added to the top wells of the plates, and dilution of the solutions was performed by taking 16 μl of the compound solutions from the top wells and pipetting them into the next row of wells. This procedure was repeated with each subsequent row of wells, except that 50 μl medium alone was added to the baseline control wells (the wells that contain medium and cells, but not test compounds) and plate control wells (wells containing medium, but not test compounds and cells). The plates were then placed in an incubator at 37° C. to equilibrate temperature and pH.\nWhen the cell cultures had reached 100% confluence, the medium was aspirated and each plate was rinsed with 15 m1 Hank's Buffered Saline (HBS). The cells were left in the incubator for about 10-15 minutes until the HBS had turned slightly yellow. The HBS was then aspirated and 1 m1 trypsin was added to each plate and swirled so as to completely cover the plates. The edges of the plates were gently rapped several times to loosen the cells. After the cells had been dislodged from the surface, 8 m1 DMEM containing 10% calf serum and 50 units/m1 penicillin and 50 units/m1 streptomycin was added to inhibit the trypsin. The plates were rinsed with this medium, and the cells were pipetted into a tube. The cells were centrifuged at 1000 rpm for 5-10 min. in an IEC Centra CL2 centrifuge (produced by Sorvall). Afterwards, the medium was carefully aspirated so as not to dislodge the cells. The cell pellet was suspended in 1600 μl DMEM containing 10% calf serum and 50 units/m1 penicillin and 50 units/m1 streptomycin, after which 20 m1 DMEM supplemented with 2% Cyto-SF3 was added. 50 μl aliquots of this cell suspension was added to the wells of the 96-well microtiter plates prepared above (except for the plate control wells)."}
{"smiles": "CCCCC1CCN(CCCC(=O)c2ccccc2C)CC1", "note": "[Compound A, 4-n-Butyl-1-[4-(2-methylphenyl)-4-oxo-1-butyl]piperidine]", "values": [{"measurement": "Emax at 1.5 µM", "setting": "NIH3T3, m1, compound at 1.5 μM, maximum = response to 10 μM carbachol, read-out: Cellular response as a percentage of the maximum response of the cells", "result": 107, "unit": "%"}, {"measurement": "antagonism of carbachol-induced responses", "setting": "m1", "result": "not an antagonist"}, {"measurement": "maximal response relative to reference compound carbachol", "setting": "m1 receptor", "result": "lower maximal response than the reference compound carbachol"}, {"measurement": "agonist activity at the m1 receptor", "setting": "receptor transfected into separate cell cultures", "result": "potent partial agonist"}]}
